{
  "source": "patent US10786522B2",
  "about": "“Compositions that include anthocyanidins and methods of use” (Maqui NewLife S.A., priority 2009, dated 2020)",
  "key": {"PPAR-γ": {"test_system": "PPAR-γ", "test": "PPAR-γ-Luc reporter assay in HL-60 cells", "format": "cell-based, Human", "settings": "control substances, 12 h, concentration not given", "description": "We examined the effect of delphindin-rich anthocyanidins on PPAR-γ activation. HL-60 cells in IMDM medium were transfected with the reporter vectors PPAR-γ-Luc (5 μg) (Panomics) and TK-RL (1 μg) (Promega) using Fugene 6 reagent (Roche), and cultured for 24 hr. Then, the cells were incubated for 12 h in 0.175, 1.75, or 17.5 μg/ml of delphindin-rich anthocyanidins, phorbol myristate acetate (PMA), 15-deoxi-d 12,14-prostaglandin J2 (PGj2), or tumor necrosis factor alpha (TNFα) as controls. Luciferase activity was measured using the Dual-Luciferase Reporter Assay kit (DLR) from Promega in a luminometer (Luminoskan)."}, "NF-κB": {"test_system": "NF-κB", "test": "NF-κB luciferase reporter assay in HL-60 cells", "format": "cell-based, Human", "settings": "positive control, concentration not given", "description": "We examined the effect of anthocyanidins on NF-κB activation using a luciferase reporter assay in HL-60 cells (Human promyelocytic leukemia cells). HL-60 cells in IMDM medium were transfected with a reporter vector with an NF-kB consensus sequence located in the luciferase promoter for 24 h at 37° C., then were incubated with delphinidin-rich anthocyanidins diluted 1:500000, 1:50000, and 1:5000. PMA was used as positive control. Luciferase activity was measured with a Dual luciferase assay kit (Promega) according to the supplier's instructions. A vector that constitutively expressed renilla luciferase was used to standardize the assay."}},
  "data": [
    {"smiles": "CCCCCCCCCCCCCC(=O)O[C@@H]1[C@@H](C)[C@@]2(O)[C@@H](C=C(CO)C[C@]3(O)C(=O)C(C)=C[C@@H]23)[C@@H]2C(C)(C)[C@]12OC(C)=O", "note": "[PMA, phorbol myristate acetate]", "values": [
      {"measurement": "Average percentage activity of control [PPAR-γ-Luc/TK-RL] ± SD", "setting": "PPAR-γ", "value": "527.5 ± 536.3", "unit": "%"},
      {"measurement": "Average percentage activity of control [pNF-κB/pRL-luc]", "setting": "NF-κB", "value": 50, "unit": "%"}
    ]}
  ]
}
